Experiments:
Assay in all cases: relative viability (nuclei count vs DMSO), 5 days (fraction); higher = more cells survive
201T = tested on: 201T
Procedure, shortened: (§1)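 Nuclei were stained with Hoechst during a one-step fixation (final 0.05% Triton X-100, 1% formaldehyde, 1 ug/ml Hoechst) carried out 5 days after dosing, then counted on 4× images. The cells, lung cancer lines in 1536-well plates, had been dosed by pin tool the day after seeding with one drug alone or a fixed anchor-drug dose plus five library-drug doses (not always all listed) in √10 steps. Relative viability is the nuclei count in treated wells divided by that in vehicle wells, and each value is the median of duplicate plates.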

BEN = tested on: BEN
Procedure, shortened: as §1

COR-L 105 = tested on: COR-L 105
Procedure, shortened: as §1

EKVX = tested on: EKVX
Procedure, shortened: as §1

EPLC-272H = tested on: EPLC-272H
Procedure, shortened: as §1

H3255 = tested on: H3255
Procedure, shortened: as §1

HCC-827 = tested on: HCC-827
Procedure, shortened: as §1

HOP-62 = tested on: HOP-62
Procedure, shortened: as §1

LCLC-97TM1 = tested on: LCLC-97TM1
Procedure, shortened: as §1

LOU-NH91 = tested on: LOU-NH91
Procedure, shortened: as §1

LU99A = tested on: LU99A
Procedure, shortened: as §1

NCI-H1395 = tested on: NCI-H1395
Procedure, shortened: as §1

NCI-H1437 = tested on: NCI-H1437
Procedure, shortened: as §1

NCI-H1666 = tested on: NCI-H1666
Procedure, shortened: as §1

NCI-H1975 = tested on: NCI-H1975
Procedure, shortened: as §1

NCI-H2085 = tested on: NCI-H2085
Procedure, shortened: as §1

NCI-H2087 = tested on: NCI-H2087
Procedure, shortened: as §1

NCI-H2126 = tested on: NCI-H2126
Procedure, shortened: as §1

NCI-H2342 = tested on: NCI-H2342
Procedure, shortened: as §1

NCI-H358 = tested on: NCI-H358
Procedure, shortened: as §1

NCI-H647 = tested on: NCI-H647
Procedure, shortened: as §1

PC-3 [JPC-3] = tested on: PC-3 [JPC-3]
Procedure, shortened: as §1

SW 1573 = tested on: SW 1573
Procedure, shortened: as §1

C[C@@H]1CN(CC(=O)Nc2ccc3c(c2)Cc2cccc(-c4cc(=O)cc(N5CCOCC5)o4)c2S3)C[C@H](C)O1 + COc1cc2c(Oc3ccc(NC(=O)C4(C(=O)Nc5ccc(F)cc5)CC4)cc3F)ccnc2cc1OCCCN1CCOCC1 [Foretinib] (partner 0.25 µM)
relative viability (201T; first compound 0.04 µM): 0.93
relative viability (201T; first compound 0.1265 µM): 1.06
relative viability (201T; first compound 4 µM): 0.936
relative viability (BEN; first compound 0.04 µM): 0.615
relative viability (BEN; first compound 0.1265 µM): 0.552
relative viability (BEN; first compound 0.4 µM): 0.593
relative viability (BEN; first compound 4 µM): 0.623
relative viability (COR-L 105; first compound 0.04 µM): 1.39
relative viability (COR-L 105; first compound 0.1265 µM): 0.971
relative viability (COR-L 105; first compound 0.4 µM): 1.17
relative viability (COR-L 105; first compound 4 µM): 0.701
relative viability (EKVX; first compound 0.04 µM): 0.947
relative viability (EKVX; first compound 0.1265 µM): 1.16
relative viability (EKVX; first compound 0.4 µM): 0.927
relative viability (EKVX; first compound 4 µM): 0.76
relative viability (EPLC-272H; first compound 0.04 µM): 0.643
relative viability (EPLC-272H; first compound 0.1265 µM): 0.817
relative viability (EPLC-272H; first compound 0.4 µM): 0.761
relative viability (EPLC-272H; first compound 4 µM): 0.674
relative viability (H3255; first compound 0.04 µM): 1.02
relative viability (H3255; first compound 0.1265 µM): 0.837
relative viability (H3255; first compound 0.4 µM): 0.677
relative viability (H3255; first compound 4 µM): 0.783
relative viability (HCC-827; first compound 0.04 µM): 1.08
relative viability (HCC-827; first compound 0.1265 µM): 1
relative viability (HCC-827; first compound 0.4 µM): 1.08
relative viability (HCC-827; first compound 4 µM): 0.939
relative viability (HOP-62; first compound 0.04 µM): 0.924
relative viability (HOP-62; first compound 0.1265 µM): 1.08
relative viability (HOP-62; first compound 0.4 µM): 1.13
relative viability (HOP-62; first compound 4 µM): 0.9
relative viability (LCLC-97TM1; first compound 0.04 µM): 0.902
relative viability (LCLC-97TM1; first compound 0.1265 µM): 0.862
relative viability (LCLC-97TM1; first compound 0.4 µM): 0.959
relative viability (LCLC-97TM1; first compound 4 µM): 0.969
relative viability (LOU-NH91; first compound 0.04 µM): 1
relative viability (LOU-NH91; first compound 0.1265 µM): 0.96
relative viability (LOU-NH91; first compound 0.4 µM): 0.943
relative viability (LOU-NH91; first compound 4 µM): 0.897
relative viability (LU99A; first compound 0.04 µM): 0.79
relative viability (LU99A; first compound 0.1265 µM): 0.959
relative viability (LU99A; first compound 0.4 µM): 1.02
relative viability (LU99A; first compound 4 µM): 0.854
relative viability (NCI-H1395; first compound 0.04 µM): 1.06
relative viability (NCI-H1395; first compound 0.1265 µM): 1.07
relative viability (NCI-H1395; first compound 0.4 µM): 0.982
relative viability (NCI-H1395; first compound 4 µM): 0.866
relative viability (NCI-H1437; first compound 0.04 µM): 1.25
relative viability (NCI-H1437; first compound 0.1265 µM): 1.26
relative viability (NCI-H1437; first compound 0.4 µM): 1.29
relative viability (NCI-H1437; first compound 4 µM): 0.957
relative viability (NCI-H1666; first compound 0.04 µM): 0.952
relative viability (NCI-H1666; first compound 0.1265 µM): 0.989
relative viability (NCI-H1666; first compound 0.4 µM): 1.05
relative viability (NCI-H1666; first compound 4 µM): 0.812
relative viability (NCI-H1975; first compound 0.04 µM): 0.978
relative viability (NCI-H1975; first compound 0.1265 µM): 0.782
relative viability (NCI-H1975; first compound 0.4 µM): 0.996
relative viability (NCI-H1975; first compound 4 µM): 0.765
relative viability (NCI-H2085; first compound 0.04 µM): 1.15
relative viability (NCI-H2085; first compound 0.1265 µM): 0.83
relative viability (NCI-H2085; first compound 0.4 µM): 1.03
relative viability (NCI-H2085; first compound 4 µM): 0.745
relative viability (NCI-H2087; first compound 0.04 µM): 1.15
relative viability (NCI-H2087; first compound 0.1265 µM): 0.954
relative viability (NCI-H2087; first compound 0.4 µM): 1.05
relative viability (NCI-H2087; first compound 4 µM): 0.801
relative viability (NCI-H2126; first compound 0.04 µM): 1.17
relative viability (NCI-H2126; first compound 0.1265 µM): 1.12
relative viability (NCI-H2126; first compound 0.4 µM): 1.12
relative viability (NCI-H2126; first compound 4 µM): 1.02
relative viability (NCI-H2342; first compound 0.04 µM): 0.959
relative viability (NCI-H2342; first compound 0.1265 µM): 0.95
relative viability (NCI-H2342; first compound 0.4 µM): 0.973
relative viability (NCI-H2342; first compound 4 µM): 0.908
relative viability (NCI-H358; first compound 0.04 µM): 0.547
relative viability (NCI-H358; first compound 0.1265 µM): 0.677
relative viability (NCI-H358; first compound 0.4 µM): 0.682
relative viability (NCI-H358; first compound 4 µM): 0.4
relative viability (NCI-H647; first compound 0.04 µM): 1.34
relative viability (NCI-H647; first compound 0.1265 µM): 1.17
relative viability (NCI-H647; first compound 0.4 µM): 1.2
relative viability (NCI-H647; first compound 4 µM): 0.793
relative viability (PC-3 [JPC-3]; first compound 0.04 µM): 1.02
relative viability (PC-3 [JPC-3]; first compound 0.1265 µM): 0.998
relative viability (PC-3 [JPC-3]; first compound 0.4 µM): 0.93
relative viability (PC-3 [JPC-3]; first compound 4 µM): 0.884
relative viability (SW 1573; first compound 0.04 µM): 0.683
relative viability (SW 1573; first compound 0.1265 µM): 0.946
relative viability (SW 1573; first compound 0.4 µM): 0.936
relative viability (SW 1573; first compound 4 µM): 0.999

CC(C)Oc1cc(Nc2nc(N[C@@H](C)c3ccc(F)cn3)ncc2Cl)n[nH]1 [AZ23] + COc1cc2c(Oc3ccc(NC(=O)C4(C(=O)Nc5ccc(F)cc5)CC4)cc3F)ccnc2cc1OCCCN1CCOCC1 [Foretinib] (partner 0.25 µM)
relative viability (201T; first compound 0.03162 µM): 1.28
relative viability (201T; first compound 0.3162 µM): 1.13
relative viability (BEN; first compound 0.01 µM): 0.625
relative viability (BEN; first compound 0.03162 µM): 0.807
relative viability (BEN; first compound 0.3162 µM): 0.772
relative viability (COR-L 105; first compound 0.01 µM): 1.07
relative viability (COR-L 105; first compound 0.03162 µM): 1.26
relative viability (COR-L 105; first compound 0.3162 µM): 0.842
relative viability (EKVX; first compound 0.01 µM): 0.782
relative viability (EKVX; first compound 0.03162 µM): 0.988
relative viability (EKVX; first compound 0.3162 µM): 0.565
relative viability (EPLC-272H; first compound 0.01 µM): 0.77
relative viability (EPLC-272H; first compound 0.03162 µM): 0.74
relative viability (EPLC-272H; first compound 0.3162 µM): 0.676
relative viability (H3255; first compound 0.01 µM): 0.881
relative viability (H3255; first compound 0.03162 µM): 0.764
relative viability (H3255; first compound 0.3162 µM): 0.915
relative viability (HCC-827; first compound 0.01 µM): 1.05
relative viability (HCC-827; first compound 0.03162 µM): 1.09
relative viability (HCC-827; first compound 0.3162 µM): 1.11
relative viability (HOP-62; first compound 0.01 µM): 1.33
relative viability (HOP-62; first compound 0.03162 µM): 1.15
relative viability (HOP-62; first compound 0.3162 µM): 1.3
relative viability (LCLC-97TM1; first compound 0.01 µM): 0.922
relative viability (LCLC-97TM1; first compound 0.03162 µM): 0.928
relative viability (LCLC-97TM1; first compound 0.3162 µM): 1.01
relative viability (LOU-NH91; first compound 0.01 µM): 0.941
relative viability (LOU-NH91; first compound 0.03162 µM): 0.975
relative viability (LOU-NH91; first compound 0.3162 µM): 0.927
relative viability (LU99A; first compound 0.01 µM): 0.799
relative viability (LU99A; first compound 0.03162 µM): 0.846
relative viability (LU99A; first compound 0.3162 µM): 0.872
relative viability (NCI-H1395; first compound 0.03162 µM): 1.02
relative viability (NCI-H1395; first compound 0.3162 µM): 1
relative viability (NCI-H1437; first compound 0.01 µM): 1.37
relative viability (NCI-H1437; first compound 0.03162 µM): 1.35
relative viability (NCI-H1437; first compound 0.3162 µM): 1.4
relative viability (NCI-H1666; first compound 0.01 µM): 0.992
relative viability (NCI-H1666; first compound 0.03162 µM): 1.05
relative viability (NCI-H1666; first compound 0.3162 µM): 0.918
relative viability (NCI-H1975; first compound 0.01 µM): 1.05
relative viability (NCI-H1975; first compound 0.03162 µM): 1.14
relative viability (NCI-H1975; first compound 0.3162 µM): 0.99
relative viability (NCI-H2085; first compound 0.01 µM): 0.848
relative viability (NCI-H2085; first compound 0.03162 µM): 1.22
relative viability (NCI-H2085; first compound 0.3162 µM): 1.08
relative viability (NCI-H2087; first compound 0.01 µM): 1.49
relative viability (NCI-H2087; first compound 0.03162 µM): 1.09
relative viability (NCI-H2087; first compound 0.3162 µM): 1.02
relative viability (NCI-H2126; first compound 0.01 µM): 1.05
relative viability (NCI-H2126; first compound 0.03162 µM): 1.21
relative viability (NCI-H2126; first compound 0.3162 µM): 1.19
relative viability (NCI-H2342; first compound 0.01 µM): 0.974
relative viability (NCI-H2342; first compound 0.03162 µM): 1.07
relative viability (NCI-H2342; first compound 0.3162 µM): 1.05
relative viability (NCI-H358; first compound 0.01 µM): 0.786
relative viability (NCI-H358; first compound 0.03162 µM): 0.829
relative viability (NCI-H358; first compound 0.3162 µM): 0.727
relative viability (NCI-H647; first compound 0.01 µM): 1.24
relative viability (NCI-H647; first compound 0.03162 µM): 1.24
relative viability (NCI-H647; first compound 0.3162 µM): 1.44
relative viability (PC-3 [JPC-3]; first compound 0.01 µM): 1.23
relative viability (PC-3 [JPC-3]; first compound 0.03162 µM): 1.14
relative viability (PC-3 [JPC-3]; first compound 0.3162 µM): 0.996
relative viability (SW 1573; first compound 0.01 µM): 1.28
relative viability (SW 1573; first compound 0.03162 µM): 1.1
relative viability (SW 1573; first compound 0.3162 µM): 0.562

— the supplement of paper PMC10307832
